Experimental data taken from paper PMC11859928, “Design, Synthesis, and Antiproliferative Activity of Novel Indole/1,2,4-Triazole Hybrids as Tubulin Polymerization Inhibitors” (Pharmaceuticals, 2025).
Where two headings read alike, the source gives them in different places.

Legend:
Type in all cases: cell-based, human
[1] = tested on: HCC-2998; assay: NCI five-dose assay; settings: for GI50 / CC50: Homo sapiens; for GI50: read-out: GI50 Conc. per Cell Lines; for CC50: read-out: LC50 (the source's name)
[2] = tested on: MALME-3M; assay: NCI five-dose assay; settings: for GI50 / CC50: Homo sapiens; for GI50: read-out: GI50 Conc. per Cell Lines; for CC50: read-out: LC50 (the source's name)
[3] = tested on: LOX IMVI; assay: NCI five-dose assay; settings: for GI50 / CC50: Homo sapiens; for GI50: read-out: GI50 Conc. per Cell Lines; for CC50: read-out: LC50 (the source's name)
[4] = tested on: MDA/MB-231-ATCC; assay: NCI five-dose assay; settings: for LC50 / GI50: Homo sapiens; for GI50: read-out: GI50 Conc. per Cell Lines
[5] = tested on: NCI-H322M; assay: NCI five-dose assay; settings: for GI50 / CC50: Homo sapiens; for GI50: read-out: GI50 Conc. per Cell Lines; for CC50: read-out: LC50 (the source's name)
[6] = tested on: MOLT-4; assay: NCI five-dose assay; settings: for GI50 / CC50: Homo sapiens; for GI50: read-out: GI50 Conc. per Cell Lines; for CC50: read-out: LC50 (the source's name)
[7] = tested on: Non-small cell lung cancer subpanel; assay: NCI five-dose assay, subpanel mean; settings: for GI50: Homo sapiens, read-out: GI50 Subpanel MID b; for GI50 Selectivity Ratio (MID a/MID b): Non-small cell lung cancer subpanel
[8] = tested on: HL-60(TB); assay: NCI five-dose assay; settings: for GI50 / CC50: Homo sapiens; for GI50: read-out: GI50 Conc. per Cell Lines; for CC50: read-out: LC50 (the source's name)
[9] = tested on: SK-MEL-2; assay: NCI five-dose assay; settings: for GI50 / CC50: Homo sapiens; for GI50: read-out: GI50 Conc. per Cell Lines; for CC50: read-out: LC50 (the source's name)
[10] = tested on: TK-10; assay: NCI five-dose assay; settings: for GI50 / CC50: Homo sapiens; for GI50: read-out: GI50 Conc. per Cell Lines; for CC50: read-out: LC50 (the source's name)
[11] = tested on: SF-268; assay: NCI five-dose assay; settings: for GI50 / CC50: Homo sapiens; for GI50: read-out: GI50 Conc. per Cell Lines; for CC50: read-out: LC50 (the source's name)
[12] = tested on: SF-295; assay: NCI five-dose assay; settings: for GI50 / CC50: Homo sapiens; for GI50: read-out: GI50 Conc. per Cell Lines; for CC50: read-out: LC50 (the source's name)
[13] = tested on: NCI-H522; assay: NCI five-dose assay; settings: for GI50 / CC50: Homo sapiens; for GI50: read-out: GI50 Conc. per Cell Lines; for CC50: read-out: LC50 (the source's name)
[14] = Non-small cell lung cancer, 48 h
[15] = average sensitivity of all cell lines of the Non-small cell lung cancer subpanel
[16] = NCI-H522, Non-small cell lung cancer, 48 h
[17] = NCI-H522, Non-small cell lung cancer

O/N=C(\CSc1nnc(-c2c[nH]c3ccccc23)n1-c1ccccc1)c1ccc(Cl)cc1 [Compound 7j, (Z)-2-((5-(1H-Indol-3-yl)-4-phenyl-4H-1,2,4-triazol-3-yl)thio)-1-(4-chlorophenyl) Ethanone Oxime]
GI50 ([1]; HCC-2998, five dose levels): 4.74 µM | CC50 ([1]; HCC-2998, five dose levels): > 100 µM | GI50 ([2]; five dose levels): 4.99 µM | CC50 ([2]; five dose levels): > 100 µM | TGI Conc. per Cell Lines ([2]; five dose levels): 27.5 µM | GI50 ([3]; five dose levels): 1.72 µM | CC50 ([3]; five dose levels): 17.4 µM | TGI Conc. per Cell Lines ([3]; five dose levels): 3.12 µM | LC50 ([4]; five dose levels): > 100 µM | GI50 ([4]; five dose levels): 1.87 µM | TGI Conc. per Cell Lines ([4]; five dose levels): 3.66 µM | GI50 ([5]; five dose levels): 5.71 µM | CC50 ([5]; five dose levels): > 100 µM | TGI Conc. per Cell Lines ([5]; five dose levels): 7.33 µM | GI50 ([6]; MOLT-4, five dose levels): 2.16 µM | CC50 ([6]; MOLT-4, five dose levels): > 100 µM | TGI Conc. per Cell Lines ([6]; MOLT-4, five dose levels): 5.69 µM | GI50 ([7]; Non-small cell lung cancer, average sensitivity of all cell lines of the subpanel): 3.86 µM | GI50 Selectivity Ratio (MID a/MID b) [7]: 0.945 | GI50 ([8]; five dose levels): 2.17 µM | CC50 ([8]; five dose levels): > 100 µM | TGI Conc. per Cell Lines ([8]; five dose levels): 6.34 µM | GI50 ([9]; SK-MEL-2, five dose levels): 3.64 µM | CC50 ([9]; SK-MEL-2, five dose levels): > 100 µM | GI50 ([10]; TK-10, five dose levels): 3.7 µM | CC50 ([10]; TK-10, five dose levels): > 100 µM | TGI Conc. per Cell Lines ([10]; TK-10, five dose levels): 17.7 µM | GI50 ([11]; SF-268, five dose levels): 2.11 µM | CC50 ([11]; SF-268, five dose levels): > 100 µM | TGI Conc. per Cell Lines ([11]; SF-268, five dose levels): 5.08 µM | GI50 ([12]; SF-295, five dose levels): 3.11 µM | CC50 ([12]; SF-295, five dose levels): > 100 µM | TGI Conc. per Cell Lines ([12]; SF-295, five dose levels): 13.4 µM | GI50 ([13]; NCI-H522, five dose levels): 3.11 µM | CC50 ([13]; NCI-H522, five dose levels): 81.7 µM | TGI Conc. per Cell Lines ([13]; NCI-H522, five dose levels): 12.5 µM

Cc1ccc(/C(CSc2nnc(-c3c[nH]c4ccccc34)n2-c2ccccc2)=N/O)cc1 [Compound 7h, (Z)-2-((5-(1H-Indol-3-yl)-4-phenyl-4H-1,2,4-triazol-3-yl)thio)-1-(p-tolyl)ethanone Oxime]
TGI Conc. per Cell Lines ([1]; HCC-2998, Colon cancer): 3.93 µM | CC50 ([1]; HCC-2998, Colon cancer, 48 h): 7.39 µM | GI50 ([1]; HCC-2998, Colon cancer): 2.09 µM | CC50 ([2]; Melanoma, 48 h): 59.1 µM | GI50 ([2]; Melanoma): 2.26 µM | TGI Conc. per Cell Lines ([2]; Melanoma): 5.57 µM | CC50 ([3]; Melanoma, 48 h): 5.73 µM | GI50 ([3]; Melanoma): 1.75 µM | TGI Conc. per Cell Lines ([3]; Melanoma): 3.17 µM | TGI Conc. per Cell Lines ([4]; Breast cancer): 3.33 µM | LC50 ([4]; Breast cancer, 48 h): 6.27 µM | GI50 ([4]; Breast cancer): 1.77 µM | CC50 [5, 14]: > 100 µM | GI50 ([5]; Non-small cell lung cancer): 3.54 µM | TGI Conc. per Cell Lines ([5]; Non-small cell lung cancer): 19.80 µM | GI50 ([6]; MOLT-4, Leukemia): 2.04 µM | TGI Conc. per Cell Lines ([6]; MOLT-4, Leukemia): 4.23 µM | GI50 [7, 15]: 4.44 µM | GI50 Selectivity Ratio (MID a/MID b) [7]: 0.68 | GI50 ([8]; Leukemia): 1.92 µM | TGI Conc. per Cell Lines ([8]; Leukemia): 3.96 µM | CC50 ([9]; SK-MEL-2, Melanoma, 48 h): > 100 µM | GI50 ([9]; SK-MEL-2, Melanoma): 2.88 µM | TGI Conc. per Cell Lines ([9]; SK-MEL-2, Melanoma): 8.96 µM | CC50 ([10]; TK-10, Renal cancer, 48 h): 7.9 µM | GI50 ([10]; TK-10, Renal cancer): 1.9 µM | TGI Conc. per Cell Lines ([10]; TK-10, Renal cancer): 3.87 µM | CC50 ([11]; SF-268, CNS cancer, 48 h): > 100 µM | GI50 ([11]; SF-268, CNS cancer): 1.99 µM | TGI Conc. per Cell Lines ([11]; SF-268, CNS cancer): 4.66 µM | CC50 ([12]; SF-295, CNS cancer, 48 h): 6.15 µM | GI50 ([12]; SF-295, CNS cancer): 1.64 µM | TGI Conc. per Cell Lines ([12]; SF-295, CNS cancer): 3.18 µM | CC50 [13, 16]: > 100 µM | GI50 [13, 17]: 2.24 µM | TGI Conc. per Cell Lines [13, 17]: 6.04 µM

Cc1ccc(C(=O)CSc2nnc(-c3c[nH]c4ccccc34)n2-c2ccccc2)cc1 [Compound 6h, 2-((5-(1H-Indol-3-yl)-4-phenyl-4H-1,2,4-triazol-3-yl)thio)-1-(p-tolyl)ethenone]
TGI Conc. per Cell Lines ([1]; HCC-2998, Colon cancer): 51.70 µM | CC50 ([1]; HCC-2998, Colon cancer, 48 h): > 100 µM | GI50 ([1]; HCC-2998, Colon cancer): 20 µM | GI50 ([2]; Melanoma): 16.2 µM | TGI Conc. per Cell Lines ([2]; Melanoma): 36.20 µM | GI50 ([3]; Melanoma): 14.3 µM | TGI Conc. per Cell Lines ([3]; Melanoma): 27.30 µM | TGI Conc. per Cell Lines ([4]; Breast cancer): 32.60 µM | LC50 ([4]; Breast cancer, 48 h): 69 µM | GI50 ([4]; Breast cancer): 15.4 µM | CC50 [5, 14]: > 100 µM | GI50 ([5]; Non-small cell lung cancer): 16.3 µM | TGI Conc. per Cell Lines ([5]; Non-small cell lung cancer): 55.50 µM | CC50 ([6]; MOLT-4, Leukemia, 48 h): > 100 µM | GI50 ([6]; MOLT-4, Leukemia): 21.8 µM | TGI Conc. per Cell Lines ([6]; MOLT-4, Leukemia): ˃100 µM | GI50 [7, 15]: 14.9 µM | GI50 Selectivity Ratio (MID a/MID b) [7]: 1.29 | CC50 ([8]; Leukemia, 48 h): > 100 µM | GI50 ([8]; Leukemia): 30.8 µM | TGI Conc. per Cell Lines ([8]; Leukemia): ˃100 µM | CC50 ([9]; SK-MEL-2, Melanoma, 48 h): > 100 µM | GI50 ([9]; SK-MEL-2, Melanoma): 30.2 µM | TGI Conc. per Cell Lines ([9]; SK-MEL-2, Melanoma): >100 µM | CC50 ([10]; TK-10, Renal cancer, 48 h): 85 µM | GI50 ([10]; TK-10, Renal cancer): 23.2 µM | TGI Conc. per Cell Lines ([10]; TK-10, Renal cancer): 44.40 µM | CC50 ([11]; SF-268, CNS cancer, 48 h): > 100 µM | GI50 ([11]; SF-268, CNS cancer): 24.2 µM | TGI Conc. per Cell Lines ([11]; SF-268, CNS cancer): 78.90 µM | CC50 ([12]; SF-295, CNS cancer, 48 h): 53.3 µM | GI50 ([12]; SF-295, CNS cancer): 12.6 µM | TGI Conc. per Cell Lines ([12]; SF-295, CNS cancer): 25.90 µM | CC50 [13, 16]: > 100 µM | GI50 [13, 17]: 16.3 µM | TGI Conc. per Cell Lines [13, 17]: 43.70 µM
